The source of these data is patent EP4238581A1, “TARGETED DELIVERY OF OLIGONUCLEOTIDES INTO EUKARYOTIC CELLS USING HYBRID MALTOSE/CYCLODEXTRIN POLYPLEXES” (Technische Universität Dresden e. V., priority 2022, dated 2023).

This assay relates to 293T-PSCA cells. Put plainly: Endocytosis inhibitors and GFP transfection by scFv(AM1)-P-BAP hybrid polyplexes. The assay is classed as cell-based. Conditions: cells transfected with scFv(AM1)-P-BAP hybrid polyplexes loaded with MC encoding GFP; inhibitor concentration not given. An excerpt:
To investigate if a receptor-mediated endocytosis contributes to uptake of scFv-P-BAP hybrid polyplexes clathrin-dependent and clathrin-independent endocytosis was blocked using chlorpromazine and filipin III.

Regarding `CN(C)CCCN1c2ccccc2Sc2ccc(Cl)cc21` [chlorpromazine], the “fraction of GFP-positive 293T-PSCA cells” value is “significant decrease”. For the molecule `CCCCC[C@@H](O)[C@H]1C(=O)O[C@H](C)[C@@H](O)/C=C/C=C/C=C/C=C/C=C(\C)[C@@H](O)C[C@H](O)C[C@H](O)C[C@H](O)C[C@H](O)C[C@H](O)C[C@@H]1O` [filipin III], the “fraction of GFP-positive 293T-PSCA cells” value is reported as “significant decrease”.
